Counter-ions that a name gives are not always drawn. One block for each compound: values may come before it.
Biological target: T1, recombinant human XT-I (Homo sapiens, UniProt Q86Y38)
T1 sequence (Q86Y38 252-959 limits assumed): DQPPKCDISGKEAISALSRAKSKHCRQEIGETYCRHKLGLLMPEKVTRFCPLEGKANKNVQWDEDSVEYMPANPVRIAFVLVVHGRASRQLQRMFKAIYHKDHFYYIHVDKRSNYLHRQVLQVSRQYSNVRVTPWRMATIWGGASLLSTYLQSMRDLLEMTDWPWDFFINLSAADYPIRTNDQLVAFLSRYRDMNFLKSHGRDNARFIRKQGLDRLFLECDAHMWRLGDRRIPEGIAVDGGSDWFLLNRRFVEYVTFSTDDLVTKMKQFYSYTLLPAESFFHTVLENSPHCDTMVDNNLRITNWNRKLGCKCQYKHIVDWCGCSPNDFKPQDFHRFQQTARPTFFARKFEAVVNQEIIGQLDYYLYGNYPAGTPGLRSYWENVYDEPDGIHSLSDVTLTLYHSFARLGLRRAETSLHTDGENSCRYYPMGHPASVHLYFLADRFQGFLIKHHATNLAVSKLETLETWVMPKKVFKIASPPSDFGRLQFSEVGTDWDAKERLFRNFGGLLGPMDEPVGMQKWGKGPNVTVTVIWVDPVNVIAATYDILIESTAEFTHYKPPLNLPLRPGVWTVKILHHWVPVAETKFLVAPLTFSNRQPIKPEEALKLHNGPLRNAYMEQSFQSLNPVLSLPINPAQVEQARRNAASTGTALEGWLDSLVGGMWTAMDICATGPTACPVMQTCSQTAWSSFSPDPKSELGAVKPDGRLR
Assay: NP library inhibitor screening, UPLC/ESI-MS/MS XT-I assay
Format: biochemical
Settings: Table S1; 50 μM inhibitor; relative to negative control containing DMSO; technical duplicates

SMILES: CN(N=O)C(=O)N[C@H]1C(O)O[C@H](CO)[C@@H](O)[C@@H]1O (mixture of isomers) [Compound 3, Streptozotocin (STZ)]
- XT-I Activity [%]: 101%

SMILES: COc1cccc2c1C(=O)c1c(O)c3c(c(O)c1C2=O)C[C@@](O)(C(=O)CO)C[C@@H]3O[C@H]1C[C@H](N)[C@@H](O)[C@H](C)O1 [Compound 2, Epirubicin HCl]
- remaining activity at 50 µM: 95%

SMILES: C[C@@H](O)[C@H]1C(=O)N2C(C(=O)O)=C(S[C@@H]3CN[C@H](CNS(N)(=O)=O)C3)[C@H](C)[C@H]12.O [Compound 4, Doripenem Hydrate]
- XT-I Activity [%]: 86%

SMILES: C[C@H]1[C@H](NC(=O)/C(=N\OC(C)(C)C(=O)O)c2csc(N)n2)C(=O)N1S(=O)(=O)O [Compound 5, Aztreonam]
- remaining activity at 50 µM: 94%

SMILES: CC[C@H]1OC(=O)[C@H](C)[C@@H](O[C@H]2C[C@@](C)(OC)[C@@H](O)[C@H](C)O2)[C@H](C)[C@@H](O[C@@H]2O[C@H](C)C[C@H](N(C)C)[C@H]2O)[C@](C)(O)C[C@@H](C)C(=O)[C@H](C)[C@@H](O)[C@]1(C)O [Compound 6, Erythromycin]
- remaining activity at 50 µM: 105%

SMILES: CC(=O)[C@H]1CC[C@H]2[C@@H]3CC=C4C[C@@H](O)CC[C@]4(C)[C@H]3CC[C@]12C [Compound 11, Pregnenolone]
- XT-I Activity [%]: 95%

SMILES: CO[C@H]1/C=C\C=C(/C)C(=O)NC2=CC(=O)C(NCCN(C)C)=C(C[C@@H](C)C[C@H](OC)[C@H](O)[C@@H](C)/C=C(\C)[C@@H]1OC(N)=O)C2=O.Cl [Compound 12, Alvespimycin (17-DMAG) HCl]
- XT-I Activity [%]: 120%

SMILES: Cn1c(=O)c2[nH]cnc2n(C)c1=O [Compound 18, Aminophylline]
- remaining activity at 50 µM: 122%

SMILES: O=C(O)c1cccnc1 [Compound 19, Nicotinic Acid]
- remaining activity at 50 µM: 126%

SMILES: Cc1cc(NS(=O)(=O)c2ccc(N)cc2)no1 [Compound 22, Sulfamethoxazole]
- remaining activity at 50 µM: 121%

SMILES: CC(=O)O[C@@]12CO[C@@H]1C[C@H](O)[C@@]1(C)C(=O)[C@H](O)C3=C(C)[C@@H](OC(=O)[C@H](O)[C@@H](NC(=O)OC(C)(C)C)c4ccccc4)C[C@@](O)([C@@H](OC(=O)c4ccccc4)[C@H]21)C3(C)C [Compound 23, Docetaxel]
- remaining activity at 50 µM: 104%

SMILES: C[C@@H](O)[C@H]1C(=O)N2C(C(=O)O)=C(S[C@@H]3CN[C@H](C(=O)N(C)C)C3)[C@H](C)[C@H]12 [Compound 26, Meropenem]
- remaining activity at 50 µM: 107%

SMILES: CCCSc1ccc2nc(NC(=O)OC)[nH]c2c1 [Compound 28, Albendazole]
- remaining activity at 50 µM: 77%

SMILES: CC[C@]1(O)C[C@H]2CN(CCc3c([nH]c4ccccc34)[C@@](C(=O)OC)(c3cc4c(cc3OC)N(C=O)[C@H]3[C@@](O)(C(=O)OC)[C@H](OC(C)=O)[C@]5(CC)C=CCN6CC[C@]43[C@@H]65)C2)C1 [Compound 35, Vincristine sulfate]
- remaining activity at 50 µM: 87%

SMILES: OC(Cn1cncn1)(Cn1cncn1)c1ccc(F)cc1F [Compound 36, Fluconazole]
- remaining activity at 50 µM: 75%

Now from value to compound:

- remaining activity at 50 µM: 122%
SMILES: OC[C@H]1O[C@@H](O[C@@H]2[C@@H](CO)OC(O)(CO)[C@H]2O)[C@H](O)[C@@H](O)[C@H]1O (mixture of isomers) [Compound 16, Lactulose]

- remaining activity at 50 µM: 70%
SMILES: CO[C@H]1C[C@@H]2CC[C@@H](C)[C@@](O)(O2)C(=O)C(=O)N2CCCC[C@H]2C(=O)O[C@H]([C@H](C)C[C@@H]2CC[C@@H](O)[C@H](OC)C2)CC(=O)[C@H](C)/C=C(\C)[C@@H](O)[C@@H](OC)C(=O)[C@H](C)C[C@H](C)/C=C/C=C/C=C/1C [Compound 1, Rapamycin (Sirolimus)]

- remaining activity at 50 µM: 93%
SMILES: Nc1[nH]c(=O)ncc1F [Compound 7, Flucytosine]

- remaining activity at 50 µM: 112%
SMILES: CO[C@H]1/C=C/O[C@@]2(C)Oc3c(C)c(O)c4c(c3C2=O)C2=NC3(CCN(CC(C)C)CC3)NC2=C(NC(=O)/C(C)=C\C=C\[C@H](C)[C@H](O)[C@@H](C)[C@@H](O)[C@@H](C)[C@H](OC(C)=O)[C@@H]1C)C4=O [Compound 8, Rifabutin]

- remaining activity at 50 µM: 103%
SMILES: Nc1ncnc2c1ncn2[C@@H]1O[C@H](CO)[C@@H](O)[C@@H]1O [Compound 9, Vidarabine]

- remaining activity at 50 µM: 115%
SMILES: O=c1c(-c2ccc(O)cc2)coc2cc(O)ccc12 [Compound 10, Daidzein]

- remaining activity at 50 µM: 114%
SMILES: COc1cc([C@@H]2c3cc4c(cc3[C@@H](O[C@@H]3O[C@@H]5CO[C@@H](C)O[C@H]5[C@H](O)[C@H]3O)[C@H]3COC(=O)[C@H]23)OCO4)cc(OC)c1O [Compound 13, Etoposide]

- remaining activity at 50 µM: 121%
SMILES: C=C1C(=O)O[C@@H]2/C=C(\C)CC/C=C(\C)CC[C@@H]12 [Compound 14, Costunolide]

- remaining activity at 50 µM: 86%
SMILES: CC1=C(/C=C/C(C)=C/C=C/C(C)=C\C(=O)O)C(C)(C)CCC1 [Compound 15, Isotretinoin]

- remaining activity at 50 µM: 83%
SMILES: CO[C@H]1/C=C/O[C@@]2(C)Oc3c(C)c(O)c4c(O)c(c5c(nc6cc(C)ccn65)c4c3C2=O)NC(=O)/C(C)=C\C=C\[C@H](C)[C@H](O)[C@@H](C)[C@@H](O)[C@@H](C)[C@H](OC(C)=O)[C@@H]1C [Compound 20, Rifaximin]

- remaining activity at 50 µM: 108%
SMILES: CCn1cc(C(=O)O)c(=O)c2cc(F)c(N3CCN(C)CC3)cc21 [Compound 21, Pefloxacin Mesylate]

- XT-I Activity [%]: 114%
SMILES: COc1cc2c(cc1O)CC[C@@H]1[C@@H]2CC[C@]2(C)[C@@H](O)CC[C@@H]12 [Compound 24, 2-Methoxyestradiol (2-MeOE2)]

- XT-I Activity [%]: 106%
SMILES: C[C@@H]1C[C@H]2[C@@H]3CCC4=CC(=O)C=C[C@]4(C)[C@@]3(F)[C@@H](O)C[C@]2(C)[C@@]1(O)C(=O)CO [Compound 25, Dexamethasone (DHAP)]

- remaining activity at 50 µM: 95%
SMILES: C[C@@H]1C/C=C/C=C/C=C/C=C/[C@H](O[C@@H]2O[C@H](C)[C@@H](O)[C@H](N)[C@@H]2O)C[C@@H]2O[C@](O)(C[C@@H](O)C[C@H]3O[C@@H]3/C=C/C(=O)O1)C[C@H](O)[C@H]2C(=O)O [Compound 27, Natamycin]

- remaining activity at 50 µM: 70%
SMILES: CCC(C)(C)c1ccc(CC(C)CN2C[C@@H](C)O[C@@H](C)C2)cc1 (stereo partly drawn) [Compound 29, Amorolfine HCl]

- remaining activity at 50 µM: 50%
SMILES: CO[C@H]1/C=C/O[C@@]2(C)Oc3c(C)c(O)c4c(O)c(c(/C=N/N5CCN(C6CCCC6)CC5)c(O)c4c3C2=O)NC(=O)/C(C)=C\C=C\[C@H](C)[C@H](O)[C@@H](C)[C@@H](O)[C@@H](C)[C@H](OC(C)=O)[C@@H]1C [Compound 30, Rifapentine]

- remaining activity at 50 µM: 82%
SMILES: CCC(C)(C)C(=O)O[C@H]1C[C@@H](C)C=C2C=C[C@H](C)[C@H](CC[C@@H]3C[C@@H](O)CC(=O)O3)[C@H]21 [Compound 31, Simvastatin]

- XT-I Activity [%]: 74%
SMILES: CC(C)[C@H](N)C(=O)OCCOCn1cnc2c(=O)nc(N)[nH]c21.Cl [Compound 32, Valaciclovir HCl]

- remaining activity at 50 µM: 95%
SMILES: Cc1noc(NS(=O)(=O)c2ccc(N)cc2)c1C [Compound 33, Sulfisoxazole]

- remaining activity at 50 µM: 79%
SMILES: CC(=O)O[C@H]1C(=O)[C@@]2(C)[C@H]([C@H](OC(=O)c3ccccc3)[C@]3(O)C[C@H](OC(=O)[C@H](O)[C@@H](NC(=O)c4ccccc4)c4ccccc4)C(C)=C1C3(C)C)[C@]1(OC(C)=O)CO[C@@H]1C[C@@H]2O [Compound 34, Paclitaxel]

- remaining activity at 50 µM: 51%
SMILES: Oc1ccc(/C=C/c2cc(O)cc(O)c2)cc1 [Compound 37, Resveratrol]
